From patent US11866430B2, “Naphthyridinone compounds useful as T cell activators” (priority 2018, dated 2024)
Like-named read-outs stand apart in the source and are kept apart here.

Key:
[1] = tested on: pre-activated CD4 T cells and Raji cells; experiment: Raji CD4 T Cell IL2 Assay; format: cell-based
human DGKα [2] = molecular target: T1, human DGKα (Homo sapiens (Human), UniProt P23743); experiment: biochemical
Method in brief: (§1)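 Enzymes were baculovirus/Sf9 full-length human DGKα or DGKζ with His tag. The substrate was PS/DAG in octyl glucoside micelles, in MOPS pH 7.5 buffer with NaCl, MgCl2, CaCl2 and DTT.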

human DGKα [3] = molecular target: T1, human DGKα; experiment: DGKα LIPGLO assay (extruded liposome substrate); format: biochemical
Method in brief: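 Human full-length DGKα, His-tagged and produced in Sf9 cells, assayed at 20 nM (4× stock) on extruded liposomes of PS, 0.25 mM DAG and 2.75 mM PC, preincubated 10 min. Reaction started with 300 μM ATP (stock) and ran 1 h in MOPS pH 7.5/MgCl2/CaCl2/DTT buffer.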

human DGKζ [4] = molecular target: T2, human DGKζ (Homo sapiens (Human), UniProt Q13574); experiment: DGKζ LIPGLO assay (extruded liposome substrate); format: biochemical
Method in brief: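 Sf9-derived DGKζ was premixed 10 min with PC/DAG/PS liposomes (100 nm extruded) in MOPS pH 7.5 buffer containing NaCl, MgCl2, CaCl2 and DTT.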

human DGKζ [5] = molecular target: T2, human DGKζ; experiment: DGKζ assay (detergent/lipid micelle substrate); format: biochemical
Method in brief: as §1

[6] = detergent/lipid micelle substrate, read-out: DGKα IC50
[7] = extruded liposome substrate, read-out: DGKζ LIPGLO IC50
[8] = detergent/lipid micelle substrate, read-out: DGKζ IC50

T1 sequence (P23743 other isoform, or with tags, fused parts or gaps): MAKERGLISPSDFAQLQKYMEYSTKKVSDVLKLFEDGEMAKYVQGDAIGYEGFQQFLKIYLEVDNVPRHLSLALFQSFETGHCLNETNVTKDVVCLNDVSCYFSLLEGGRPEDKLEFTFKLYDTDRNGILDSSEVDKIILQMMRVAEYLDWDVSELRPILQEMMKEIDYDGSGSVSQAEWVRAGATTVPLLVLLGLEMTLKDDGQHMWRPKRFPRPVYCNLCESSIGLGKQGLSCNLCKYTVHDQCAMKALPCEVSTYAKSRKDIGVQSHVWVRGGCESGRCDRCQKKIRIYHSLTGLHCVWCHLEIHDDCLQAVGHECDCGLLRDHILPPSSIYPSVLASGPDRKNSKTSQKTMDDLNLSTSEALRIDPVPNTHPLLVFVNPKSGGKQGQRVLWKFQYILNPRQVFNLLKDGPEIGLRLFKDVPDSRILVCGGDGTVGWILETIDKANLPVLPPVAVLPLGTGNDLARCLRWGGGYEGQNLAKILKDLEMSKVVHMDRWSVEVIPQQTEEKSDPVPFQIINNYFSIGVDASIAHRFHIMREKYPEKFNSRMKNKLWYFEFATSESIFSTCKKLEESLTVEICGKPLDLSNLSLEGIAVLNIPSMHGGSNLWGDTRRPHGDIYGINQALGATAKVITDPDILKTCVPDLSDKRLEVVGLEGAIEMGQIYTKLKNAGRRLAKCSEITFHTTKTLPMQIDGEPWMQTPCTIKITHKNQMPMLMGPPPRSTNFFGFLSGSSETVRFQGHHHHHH
T2 sequence (Q13574 other isoform, or with tags, fused parts or gaps): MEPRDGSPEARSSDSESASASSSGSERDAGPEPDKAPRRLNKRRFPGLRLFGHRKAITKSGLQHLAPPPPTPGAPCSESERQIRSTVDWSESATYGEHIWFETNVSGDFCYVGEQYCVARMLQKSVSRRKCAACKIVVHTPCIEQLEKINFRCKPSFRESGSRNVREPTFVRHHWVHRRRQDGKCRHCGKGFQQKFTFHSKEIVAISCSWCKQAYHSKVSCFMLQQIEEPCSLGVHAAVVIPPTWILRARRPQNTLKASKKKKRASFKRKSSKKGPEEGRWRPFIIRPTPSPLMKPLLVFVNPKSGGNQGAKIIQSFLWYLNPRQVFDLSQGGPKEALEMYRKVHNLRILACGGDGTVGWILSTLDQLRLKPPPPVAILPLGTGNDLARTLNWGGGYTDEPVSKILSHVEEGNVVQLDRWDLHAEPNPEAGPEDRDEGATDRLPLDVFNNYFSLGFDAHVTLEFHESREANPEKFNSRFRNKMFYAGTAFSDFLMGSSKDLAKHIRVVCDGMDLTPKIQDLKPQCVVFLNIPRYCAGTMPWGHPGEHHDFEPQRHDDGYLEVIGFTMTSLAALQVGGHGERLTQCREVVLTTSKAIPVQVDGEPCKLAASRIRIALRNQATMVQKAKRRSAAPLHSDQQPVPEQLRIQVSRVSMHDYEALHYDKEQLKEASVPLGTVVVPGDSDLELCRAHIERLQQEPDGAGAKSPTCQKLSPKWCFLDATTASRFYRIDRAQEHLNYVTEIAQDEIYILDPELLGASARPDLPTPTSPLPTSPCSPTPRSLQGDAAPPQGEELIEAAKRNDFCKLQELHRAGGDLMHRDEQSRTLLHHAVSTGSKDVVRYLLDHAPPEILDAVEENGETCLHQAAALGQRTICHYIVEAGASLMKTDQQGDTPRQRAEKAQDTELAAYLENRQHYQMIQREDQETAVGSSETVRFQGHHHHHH

Compound: Cn1c(=O)c(C#N)c(N2CCN(Cc3cccc4c3NCC4)CC2)c2nc(Cl)ccc21 [Example 216, 6-chloro-4-(4-(indolin-7-ylmethyl)piperazin-1-yl)-1-methyl-2-oxo-1,2-dihydro-1,5-naphthyridine-3-carbonitrile]
- IC50 ([1]; Homo sapiens, Raji): 64 nM
- IC50 (human DGKα [2]; [6]): 1400 nM
- IC50 (human DGKα [3]): 1200 nM
- IC50 (human DGKζ [4]; [7]): 4800 nM
- IC50 (human DGKζ [5]; [8]): 54000 nM

Compound: CC(C)C(c1ccc(F)cc1)N1CCN(c2c(C#N)c(=O)n(C)c3ccc(Cl)nc23)CC1 (single isomer, unassigned) [Example 316, 6-chloro-4-{4-[1-(4-fluorophenyl)-2-methylpropyl]piperazin-1-yl}-methyl-2-oxo-1,2-dihydro-1,5-naphthyridine-3-carbonitrile]
- IC50 [1]: 410 nM
- IC50 (human DGKα [2]; [6]): 400 nM
- IC50 (human DGKα [3]): 250 nM
- IC50 (human DGKζ [4]; [7]): > 240000 nM
- IC50 (human DGKζ [5]; [8]): > 240000 nM

Compound: COc1cc(F)ccc1C(c1ccc(F)cc1)N1CCN(c2c([N+](=O)[O-])c(=O)n(C)c3ccc(C#N)nc23)CC1 (single isomer, unassigned) [Example 125, 8-(4-((4-fluoro-2-methoxyphenyl)(4-fluorophenyl)methyl)piperazin-1-yl)-5-methyl-7-nitro-6-oxo-5,6-dihydro-1,5-naphthyridine-2-carbonitrile]
- IC50 ([1]; Homo sapiens, Raji): 23 nM
- IC50 (human DGKα [2]; [6]): 4300 nM
- IC50 (human DGKα [3]): 11000 nM
- IC50 (human DGKζ [4]; DGKζ LIPGLO IC50, extruded liposome substrate): 2300 nM
- IC50 (human DGKζ [5]; DGKζ IC50, detergent/lipid micelle substrate): 7900 nM

Compound: CC(c1ccc(F)cc1)N1CCN(c2c(C#N)c(=O)n(CC#N)c3ccc(Br)nc23)CC1 (stereo not shown) [Example 154, 6-bromo-1-(cyanomethyl)-4-(4-(1-(4-fluorophenyl)ethyl)piperazin-1-yl)-2-oxo-1,2-dihydro-1,5-naphthyridine-3-carbonitrile]
- IC50 ([1]; Homo sapiens, Raji): 880 nM
- IC50 (human DGKα [2]; [6]): 45000 nM
- IC50 (human DGKα [3]): 81000 nM
- IC50 (human DGKζ [4]; [7]): 72000 nM
- IC50 (human DGKζ [5]; [8]): > 240000 nM

Compound: Cn1c(=O)c([N+](=O)[O-])c(N2CCN(C(c3ccc(F)cc3)c3ccc(F)cc3)CC2)c2ncccc21 [Example 3, 4-(4-(bis(4-fluorophenyl)methyl)piperazin-1-yl)-1-methyl-3-nitro-1,5-naphthyridin-2(1H)-one]
- IC50 ([1]; Homo sapiens, Raji): 310 nM
- IC50 (human DGKα [2]; [6]): 2100 nM
- IC50 (human DGKα [3]): 3800 nM
- IC50 (human DGKζ [4]; [7]): 2300 nM
- IC50 (human DGKζ [5]; [8]): > 240000 nM

Compound: Cn1c(=O)c(C#N)c(N2CCN(Cc3ccc(F)cc3O)CC2)c2nc(Cl)ccc21 [Example 193, 6-chloro-4-(4-(4-fluoro-2-hydroxybenzyl)piperazin-1-yl)-1-methyl-2-oxo-1,2-dihydro-1,5-naphthyridine-3-carbonitrile]
- IC50 ([1]; Homo sapiens, Raji): 130 nM
- IC50 (human DGKα [2]; [6]): 220 nM
- IC50 (human DGKα [3]): 89 nM
- IC50 (human DGKζ [4]; [7]): 6500 nM
- IC50 (human DGKζ [5]; [8]): > 240000 nM

Compound: COc1ccccc1C(c1ccc(F)cc1)N1CCN(c2c(C#N)c(=O)n(C)c3ccc(Br)nc23)CC1 (single isomer, unassigned) [Example 14, 6-bromo-4-{4-[(4-fluorophenyl)(2-methoxyphenyl)methyl]piperazin-1-yl}-1-methyl-2-oxo-1,2-dihydro-1,5-naphthyridine-3-carbonitrile]
- IC50 [1]: 26 nM
- IC50 (human DGKα [2]; [6]): 1200 nM
- IC50 (human DGKα [3]): 4700 nM
- IC50 (human DGKζ [4]; [7]): 3200 nM
- IC50 (human DGKζ [5]; [8]): > 240000 nM

Compound: Cn1c(=O)c(C#N)c(N2CCN(C(c3ccc(F)cc3)c3ccc(F)cc3)CC2)c2nc(C#N)ccc21 [Example 217, 8-(4-(bis(4-fluorophenyl)methyl)piperazin-1-yl)-5-methy-6-oxo-5,6-dihydro-1,5-naphthyridine-2,7-dicarbonitrile]
- IC50 ([1]; Homo sapiens, Raji): 67 nM
- IC50 (human DGKα [2]; [6]): 2300 nM
- IC50 (human DGKα [3]): 1300 nM
- IC50 (human DGKζ [4]; [7]): 1400 nM
- IC50 (human DGKζ [5]; [8]): 4500 nM

Compound: Cn1c(=O)c([N+](=O)[O-])c(N2CCN(C(c3ccc(F)cc3)C3CC3)CC2)c2nc(C#N)ccc21 (single isomer, unassigned) [Example 51, 8-(4-(cyclopropyl(4-fluorophenyl)methyl)piperazin-1-yl)-5-methyl-7-nitro-6-oxo-5,6-dihydro-1,5-naphthyridine-2-carbonitrile]
- IC50 [1]: 5.2 nM
- IC50 (human DGKα [2]; DGKα IC50, detergent/lipid micelle substrate): 180 nM
- IC50 (human DGKα [3]): 330 nM
- IC50 (human DGKζ [4]; [7]): 4700 nM
- IC50 (human DGKζ [5]; [8]): 56000 nM

Compound: CC(c1ccc(F)cc1)N1CCN(c2c([N+](=O)[O-])c(=O)n(CC#N)c3ccc(C#N)nc23)CC1 (stereo not shown) [Example 151, 5-(cyanomethyl)-8-(4-(1-(4-fluorophenyl)ethyl)piperazin-1-yl)-7-nitro-6-oxo-5,6-dihydro-1,5-naphthyridine-2-carbonitrile]
- IC50 ([1]; Homo sapiens, Raji): 880 nM
- IC50 (human DGKα [2]; [6]): 38000 nM
- IC50 (human DGKα [3]): 7300 nM
- IC50 (human DGKζ [4]; [7]): 3100 nM
- IC50 (human DGKζ [5]; [8]): 27000 nM

Compound: CC(c1ccc(F)cc1)N1CCN(c2c(C#N)c(=O)n(C)c3ccc(Br)nc23)CC1 (single isomer, unassigned) [Example 23, 6-bromo-4-{4-[1-(4-fluorophenyl)ethyl]piperazin-1-yl}-1-methyl-2-oxo-1,2-dihydro-1,5-naphthyridine-3-carbonitrile]
- IC50 [1]: 41 nM
- IC50 (human DGKα [2]; [6]): 610 nM
- IC50 (human DGKα [3]): 1900 nM
- IC50 (human DGKζ [4]; [7]): 13000 nM
- IC50 (human DGKζ [5]; [8]): > 240000 nM

Compound: Cc1ccc2c(n1)c(N1CCN(Cc3cccc(F)c3O)CC1)c(C#N)c(=O)n2C [Example 329, 4-{4-[(3-fluoro-2-hydroxyphenyl)methyl]piperazin-1-yl}-1,6-dimethyl-2-oxo-1,2-dihydro-1,5-naphthyridine-3-carbonitrile]
- IC50 ([1]; Homo sapiens, Raji): 470 nM
- IC50 (human DGKα [2]; [6]): 560 nM
- IC50 (human DGKα [3]): 5600 nM
- IC50 (human DGKζ [4]; [7]): 49000 nM
- IC50 (human DGKζ [5]; [8]): 30000 nM

Compound: Cc1cccc(Cl)c1CN1CCN(c2c(C#N)c(=O)n(C)c3ccc(Cl)nc23)CC1 [Example 419, 6-chloro-4-{4-[(2-chloro-6-methylphenyl)methyl]piperazin-1-yl}-1-methyl-2-oxo-1,2-dihydro-1,5-naphthyridine-3-carbonitrile]
- IC50 ([1]; Homo sapiens, Raji): 290 nM
- IC50 (human DGKα [2]; [6]): 81000 nM
- IC50 (human DGKα [3]): 49000 nM
- IC50 (human DGKζ [4]; [7]): 15000 nM
- IC50 (human DGKζ [5]; [8]): > 81000 nM

Compound: Cn1c(=O)c(C#N)c(N2CCN(Cc3c(O)cccc3Br)CC2)c2nc(Cl)ccc21 [Example 258, 4-{4-[(2-bromo-6-hydroxyphenyl)methyl]piperazin-1-yl}-6-chloro-1-methyl-2-oxo-1,2-dihydro-1,5-naphthyridine-3-carbonitrile]
- IC50 ([1]; Homo sapiens, Raji): 5.3 nM
- IC50 (human DGKα [2]; [6]): 430 nM
- IC50 (human DGKα [3]): 1600 nM
- IC50 (human DGKζ [4]; [7]): 5300 nM
- IC50 (human DGKζ [5]; [8]): 26000 nM

Compound: N#CCCCn1c(=O)c([N+](=O)[O-])c(N2CCN(C(c3ccccc3)c3ccccc3)CC2)c2ncccc21 [Example 183, 4-(4-(4-benzhydrylpiperazin-1-yl)-3-nitro-2-oxo-1,5-naphthyridin-1(2H)-yl)butanenitrile]
- IC50 ([1]; Homo sapiens, Raji): 3200 nM
- IC50 (human DGKα [2]; [6]): 52000 nM
- IC50 (human DGKα [3]): > 240000 nM
- IC50 (human DGKζ [4]; [7]): 21000 nM
- IC50 (human DGKζ [5]; [8]): > 240000 nM

Compound: Cn1c(=O)c([N+](=O)[O-])c(N2CCN(C(c3ccc(F)cc3)c3ccccc3O)CC2)c2nc(C#N)ccc21 (single isomer, unassigned) [Example 99, 8-(4-((4-fluorophenyl)(2-hydroxyphenyl)methyl)piperazin-1-yl)-5-methyl-7-nitro-6-oxo-5,6-dihydro-1,5-naphthyridine-2-carbonitrile]
- IC50 [1]: 9.4 nM
- IC50 (human DGKα [2]; [6]): 410 nM
- IC50 (human DGKα [3]): 720 nM
- IC50 (human DGKζ [4]; [7]): 40 nM
- IC50 (human DGKζ [5]; [8]): 670 nM

Compound: Cc1ccc2c(n1)c(N1CCN(Cc3ccc(F)cc3O)CC1)c(C#N)c(=O)n2C [Example 194, 4-(4-(4-fluoro-2-hydroxybenzyl)piperazin-1-yl)-1,6-dimethyl-2-oxo-1,2-dihydro-1,5-naphthyridine-3-carbonitrile]
- IC50 ([1]; Homo sapiens, Raji): 440 nM
- IC50 (human DGKα [2]; [6]): 76 nM
- IC50 (human DGKα [3]): 180 nM
- IC50 (human DGKζ [4]; [7]): 8300 nM
- IC50 (human DGKζ [5]; [8]): 62000 nM

Compound: Cc1ccc2c(n1)c(N1CCN(C(c3ccc(F)cc3)c3ccc(F)cc3)CC1)c(Cl)c(=O)n2C [Example 233, 4-(4-(bis(4-fluorophenyl)methyl)piperazin-1-yl)-3-chloro-1,6-dimethyl-1,5-naphthyridin-2(1H)-one]
- IC50 ([1]; Homo sapiens, Raji): 480 nM
- IC50 (human DGKα [2]; [6]): 8400 nM
- IC50 (human DGKα [3]): 3000 nM
- IC50 (human DGKζ [4]; [7]): 6600 nM
- IC50 (human DGKζ [5]; [8]): > 240000 nM

Compound: C#CCn1c(=O)c([N+](=O)[O-])c(N2CCN(C(c3ccc(F)cc3)c3ccc(F)cc3OC)CC2)c2nc(C#N)ccc21 (single isomer, unassigned) [Example 127, 8-(4-((4-fluoro-2-methoxyphenyl)(4-fluorophenyl)methyl)piperazin-1-yl)-7-nitro-6-oxo-5-(prop-2-yn-1-yl)-5,6-dihydro-1,5-naphthyridine-2-carbonitrile]
- IC50 [1]: 6.4 nM
- IC50 (human DGKα [2]; [6]): 4200 nM
- IC50 (human DGKα [3]): 2900 nM
- IC50 (human DGKζ [4]; [7]): 30 nM
- IC50 (human DGKζ [5]; [8]): 250 nM

Compound: COc1ccc(CN2CCN(c3c(C#N)c(=O)n(C)c4ccc(Cl)nc34)CC2)cc1F [Example 279, 6-chloro-4-{4-[(3-fluoro-4-methoxyphenyl)methyl]piperazin-1-yl}-1-methyl-2-oxo-1,2-dihydro-1,5-naphthyridine-3-carbonitrile]
- IC50 ([1]; Homo sapiens, Raji): 92 nM
- IC50 (human DGKα [2]; [6]): 380 nM
- IC50 (human DGKα [3]): 810 nM
- IC50 (human DGKζ [4]; [7]): 5800 nM
- IC50 (human DGKζ [5]; [8]): 56000 nM
